# Values quoted from earlier work, collected in patent publication US20070026087A1 (priority 2003, published 2007).
# Like-named read-outs stand apart in the source and are kept apart here.
# Key:
# [1] = tested on: SARS coronavirus
# [2] = tested on: Adenovirus; settings: Thurman & Gerba 1989
# [3] = tested on: HSV (herpes simplex virus)-2; settings: Thurman & Gerba 1989
# [4] = tested on: Vacciniavirus; settings: Thurman & Gerba 1989
# [5] = tested on: HSV (herpes simplex virus)-1; settings: Thurman & Gerba 1989
# [6] = tested on: VSV
# [7] = tested on: Poliovirus
# [8] = tested on: HVJ; settings: Thurman & Gerba 1989
# [9] = reported, effective only temporarily
structure (smiles),measurement,setting,value
O=CCCCC=O [glutaraldehyde],efficacy as disinfectant against SARS coronavirus,[1]; [9],effective
OCl [sodium hypochlorite],efficacy as disinfectant against SARS coronavirus,[1]; [9],effective
"C1CO1 [ethylene oxide gas, ethylene oxide]",efficacy as disinfectant against SARS coronavirus,[1]; [9],effective
CC(=O)OO [peracetic acid],efficacy as disinfectant against SARS coronavirus,[1],effective
CCO [ethanol],efficacy as disinfectant against SARS coronavirus,[1]; [9],effective
O=[N+]([O-])[O-].[Ag+] [silver nitrate],efficacy against Adenovirus,[2],not effective
same,efficacy against HSV-2,[3],effective
same,efficacy against Vacciniavirus,[4],not effective
same,efficacy against HSV-1,[5],effective
same,efficacy against VSV,[6],not effective
same,efficacy against Poliovirus,[7],not effective
same,efficacy against HVJ,[8],not effective
